The values that follow are results of earlier work, collected in US20220184108A1, “PHARMACEUTICAL AND NUTRITIONAL COMPOSITION TO MAXIMIZE NAD ENZYME'S HEALTH BENEFITS” (East West Products Corp., priority 2020, published 2022).

The conditions of data set [1]: doses of up to 500 mg; human study, Keio University School of Medicine.
The target of data set [2] is T1, Slc12a8 NMN transporter (Mus musculus, UniProt Q8VI23).
T1 sequence (Q8VI23 1-705): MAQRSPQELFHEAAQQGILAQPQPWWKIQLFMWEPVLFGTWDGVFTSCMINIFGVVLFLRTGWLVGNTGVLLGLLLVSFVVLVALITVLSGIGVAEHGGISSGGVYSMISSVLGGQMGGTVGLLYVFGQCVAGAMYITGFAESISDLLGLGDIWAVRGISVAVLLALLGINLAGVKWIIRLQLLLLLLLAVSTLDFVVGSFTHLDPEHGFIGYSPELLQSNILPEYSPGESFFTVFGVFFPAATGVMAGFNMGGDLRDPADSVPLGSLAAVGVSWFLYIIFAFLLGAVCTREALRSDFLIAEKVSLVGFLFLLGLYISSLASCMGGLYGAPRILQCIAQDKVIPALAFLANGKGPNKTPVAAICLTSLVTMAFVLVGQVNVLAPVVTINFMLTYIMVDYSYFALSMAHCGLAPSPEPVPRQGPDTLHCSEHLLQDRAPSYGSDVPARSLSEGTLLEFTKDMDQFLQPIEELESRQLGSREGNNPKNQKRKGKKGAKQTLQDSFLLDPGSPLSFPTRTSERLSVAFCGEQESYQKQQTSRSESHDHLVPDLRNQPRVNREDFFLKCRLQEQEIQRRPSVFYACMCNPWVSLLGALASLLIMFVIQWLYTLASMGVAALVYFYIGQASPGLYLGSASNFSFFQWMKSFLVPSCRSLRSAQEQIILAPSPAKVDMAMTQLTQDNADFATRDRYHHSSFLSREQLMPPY
The settings on record: mice; through the Slc12a8 NMN transporter.

Regarding `NC(=O)c1ccc[n+]([C@@H]2O[C@H](COP(=O)([O-])O)[C@@H](O)[C@H]2O)c1` [NMN, Nicotinamide mononucleotide], in data set [1], the safety in men result was “safe”. The “time for NMN to enter cells via the small intestines converting to NAD+” value in data set [2] was not above 10 min.
